Assay results: patent publication US20100086483A1, “METHOD OF MULTIDETECTOR COMPUTED TOMAGRAPHY” (Gilead Palo Alto, Inc., priority 2008, published 2010)

Tests used:
[1] = Plasma regadenoson concentrations in conscious dogs; format: in vivo, dog
Method: (§1) Each dog received an IV injection of 5 μg/kg of regadenoson. […] LVSP, LV dP/dtMax, MAP, HR and CBF were recorded continuously. Blood samples were taken from the left atrial catheter at 1, 3, 5, 15, 30, 45 and 60 min following injections of regadenoson.

[2] = system: normal subjects; experiment: PET myocardial blood flow / coronary flow reserve after regadenoson with and without caffeine, crossover study; format: in vivo, human; settings: for log CFR±SE: n=40
Method: 15O water was used as the radionuclide in the PET scans. There was a 1- to 14-day washout period between dosing days. Blood samples and measures of safety were collected until 120 minutes after study drug administration.
The CVT tracking number for the placebo capsules was 1341 (Leg 2).
The primary efficacy measure was the log coronary flow reserve (CFR), which is the ratio of stress MBF after regadenoson dosing to the resting MBF.
The data were also to be analyzed using Wilcoxon's rank-sum test.

[3] = system: conscious dogs; experiment: Effects of regadenoson on HR and CBF before and after metoprolol in conscious dogs; format: in vivo, dog; settings: for duration of two-fold increase in CBF: in the presence of metoprolol 1.5 mg/kg
Method: Five mongrel dogs were chronically instrumented for measurements of systemic hemodynamics and coronary blood flow (CBF). The effects of regadenoson (1, 2.5 and 5 μg/kg, IV) on HR and CBF were assessed before and after administration of the β1-adrenergic receptor blocker metoprolol (1.5 mg/kg). Values of peak CBF and the duration of the two-fold increase in CBF above baseline were used to assess Reg-induced coronary vasodilation.

[4] = system: conscious dogs; experiment: Effects of caffeine alone on MAP and HR in conscious dogs (Part I); format: in vivo, dog
Method: Sixteen chronically instrumented male mongrel dogs weighing from 22-30 kg were used in the study. The animal protocol was approved by the Institutional Animal Care and Use Committee of New York Medical College and conforms to the Guide for the Care and Use of Laboratory Animal by the United States National Institutes of Health.
Dogs were sedated with acepromazine (0.3 mg/kg, IM) and anesthetized with pentobarbital sodium (25 mg/kg, IV). After intubation, dogs were artificially ventilated with room air. A thoracotomy was made in the fifth intercostal space using sterile techniques. A Tygon catheter (Cardiovascular Instruments, Wakefield, Mass.) was inserted into the descending thoracic aorta and another one was inserted into the left atrium. In 9 dogs, an ultrasound flow transducer (Transonic Systems, Ithaca, N.Y.) was placed around the left circumflex coronary artery. A solid-state pressure gauge (P6.5, Konisberg Instruments, Pasadena, Calif.) was placed into the left ventricle through the apex. The chest was closed in layers. The catheters and wires were tunneled subcutaneously and externalized through the skin at the back of the dog's neck. Dogs were allowed to recover from the surgery before experiments were performed, and were trained to lie on a table.
Phasic arterial pressure was measured by connecting the aortic catheter to a strain gauge transducer (P23 ID, LDS Test and Measurement, Valley View, Ohio). Left ventricular pressures were measured by the solid pressure gauge. CBF (mL/min) was measured from an ultrasound flow transducer using a Transonic flowmeter (T206, Transonic Systems, Ithaca, N.Y.). Two indices were used to describe the regadenoson-induced coronary vasodilation: 1) the maximum increase in CBF and 2) the duration of the 2-fold increase in CBF (the period of time that CBF was elevated to a level ≧2-fold of baseline CBF). All pressure and flow data were acquired and analyzed using a Ponemah System (Version 3.30 or 4.20, LDS Test and Measurement, Valley View, Ohio). MAP and HR were calculated from phasic blood pressure, and LV dP/dtMax was calculated from the left ventricular systolic pressure.
On the day of an experiment, a dog was placed on a table, where it lay quietly during the experiment. A catheter was inserted into a peripheral vein in the leg and attached to an infusion line to administer drugs without disturbing the dog. The experiment was begun after MAP, HR and CBF were stable.
(§2) Three experiments were performed on each dog in the group.
The statistical significance of a difference between the value of a parameter at baseline and at the indicated time point after drug administration was determined using a One-Way Repeated Measures ANOVA followed by Tukey's Test. […] Results with p<0.05 were considered to be significant. A computer-based software package (SigmaStat 2.03) was used for statistical analysis. All data are presented as Mean±SEM.

[5] = Plasma caffeine concentrations in conscious dogs; format: in vivo; settings: dog, intravenous, 10 mg/kg
Method: as §2, §1

[6] = regadenoson 400 μg IV after placebo capsule
[7] = Reg 1 μg/kg IV, before metoprolol
[8] = Reg 2.5 μg/kg IV, before metoprolol
[9] = Reg 5 μg/kg IV, before metoprolol
[10] = caffeine 200 mg po, regadenoson 400 μg IV
[11] = regadenoson 400 μg IV after caffeine 200 mg po

## CNC(=O)c1cnn(-c2nc(N)c3ncn([C@@H]4O[C@H](CO)[C@@H](O)[C@H]4O)c3n2)c1 [Regadenoson, (1-{9-[(4S,2R,3R,5R)-3,4-dihydroxy-5-(hydroxymethyl)oxolan-2-yl]-6-aminopurin-2-yl}pyrazol-4-yl)-N-methylcarboxamide]
[1]; caffeine at 1, 2, 4 or 10 mg/kg
  pharmacokinetic profiles of regadenoson in presence of caffeine: not changed
[1]; regadenoson 5 μg/kg IV, absence of caffeine
  time of peak plasma regadenoson concentration: ~1 min
[2]; [6]
  CFR (stress/rest): 2.97±0.16
  log CFR±SE: 1.03±0.06
[3]; Reg 1 μg/kg IV, after metoprolol 1.5 mg/kg IV
  increase in HR (ΔHR): 19±4 bpm
[3]; [7]
  duration of 2-fold increase in CBF: 93 ± 22 s
  increase in HR (ΔHR): 49±8 bpm
  increase in peak CBF (ΔCBF): 129 ± 10 mL/min
[3]; Reg 1 μg/kg IV
  duration of two-fold increase in CBF: 71 ± 34 s
[3]; Reg 1 μg/kg IV, in the presence of metoprolol 1.5 mg/kg (NS)
  increase in peak CBF (ΔCBF): 112 ± 5 mL/min
[3]; Reg 2.5 μg/kg IV, after metoprolol 1.5 mg/kg IV
  increase in HR (ΔHR): 28±3 bpm
[3]; [8]
  duration of 2-fold increase in CBF: 316 ± 57 s
  increase in HR (ΔHR): 63±5 bpm
  increase in peak CBF (ΔCBF): 149 ± 7 mL/min
[3]; Reg 2.5 μg/kg IV
  duration of two-fold increase in CBF: 215 ± 45 s
[3]; Reg 2.5 μg/kg IV, in the presence of metoprolol 1.5 mg/kg (NS)
  increase in peak CBF (ΔCBF): 136 ± 16 mL/min
[3]; Reg 5 μg/kg IV, after metoprolol 1.5 mg/kg IV
  increase in HR (ΔHR): 39±5 bpm
[3]; [9]
  duration of 2-fold increase in CBF: 593 ± 86 s
  increase in HR (ΔHR): 71±7 bpm
  increase in peak CBF (ΔCBF): 174 ± 10 mL/min
[3]; Reg 5 μg/kg IV
  duration of two-fold increase in CBF: 364 ± 86 s
[3]; Reg 5 μg/kg IV, in the presence of metoprolol 1.5 mg/kg (p<0.05)
  increase in peak CBF (ΔCBF): 138 ± 9 mL/min

## Cn1c(=O)c2c(ncn2C)n(C)c1=O [Caffeine, caffeine]
[4]; caffeine 2 mg/kg IV
  changes in MAP and HR: no significant changes
[4]; caffeine 2 mg/kg IV, 2.5 min
  HR: 95 ± 5 beats/min
[4]; caffeine 2 mg/kg IV, 5 min
  HR: 91 ± 5 beats/min
[4]; caffeine 2 mg/kg IV, 15 min
  HR: 85 ± 6 beats/min
[4]; caffeine 2 mg/kg IV, 30 min
  HR: 81 ± 7 beats/min
[4]; caffeine 2 mg/kg IV, 60 min
  HR: 90 ± 9 beats/min
[4]; caffeine 2 mg/kg IV, 90 min
  HR: 87 ± 5 beats/min
[4]; caffeine 2 mg/kg IV, 120 min
  HR: 88 ± 6 beats/min
[4]; caffeine 4 mg/kg IV
  change in HR: without a significant change
[4]; caffeine 4 mg/kg IV, 2.5 min
  HR: 104 ± 5 beats/min
[4]; caffeine 4 mg/kg IV, 5 min
  HR: 102 ± 4 beats/min
[4]; caffeine 4 mg/kg IV, 15 min
  HR: 88 ± 6 beats/min
  MAP: 99 ± 4 mm Hg
[4]; caffeine 4 mg/kg IV, 30 min
  HR: 90 ± 7 beats/min
[4]; caffeine 4 mg/kg IV, 60 min
  HR: 85 ± 7 beats/min
[4]; caffeine 4 mg/kg IV, 90 min
  HR: 90 ± 7 beats/min
[4]; caffeine 4 mg/kg IV, 120 min
  HR: 86 ± 5 beats/min
[4]; caffeine 4 mg/kg IV, at both 2.5 and 5 min after injection
  increase in MAP: ~12 mm Hg
[4]; caffeine 10 mg/kg IV, 2.5 min
  HR: 100 ± 4 beats/min
[4]; caffeine 10 mg/kg IV, 5 min
  HR: 101 ± 4 beats/min
[4]; caffeine 10 mg/kg IV, 15 min
  HR: 93 ± 5 beats/min
[4]; caffeine 10 mg/kg IV, 30 min
  HR: 87 ± 5 beats/min
  MAP: 101 ± 3 mm Hg
[4]; caffeine 10 mg/kg IV, 60 min
  HR: 83 ± 2 beats/min
[4]; caffeine 10 mg/kg IV, 90 min
  HR: 80 ± 5 beats/min
[4]; caffeine 10 mg/kg IV, 120 min
  HR: 80 ± 4 beats/min
  MAP: 102 ± 2 mm Hg
[5]
  concentration at 45 min: 52 ± 2 µM
[2]; caffeine 200 mg po vs placebo, regadenoson 400 μg IV
  change in CFR (95% confidence): < 20%
[2]; [10]
  exponentiated lower limit of 90% confidence interval for log CFR (caffeine versus placebo difference): 0.80
  exponentiated lower limit of 95% confidence interval for log CFR (caffeine versus placebo difference): 0.78
  exponentiated upper limit of 90% confidence interval for log CFR (caffeine versus placebo difference): 1.06
  exponentiated upper limit of 95% confidence interval for log CFR (caffeine versus placebo difference): 1.08
  interaction of caffeine with regadenoson on CFR by sex: no significant interaction
[2]; [11]
  CFR (stress/rest): 2.75±0.16
  log CFR±SE: 0.95±0.06
